Experimental data published in patent EP4752149A1, “OXYGEN-CONTAINING FUSED TRICYCLIC DERIVATIVE, AND PREPARATION METHOD THEREFOR AND USE THEREOF” (Tuojie Biotech (Shanghai) Co., Ltd., priority 2023, dated 2025).

Columns and labels:
[1] = test system: Ovarian cancer cells (OVCAR3); test: Inhibitory activity against ovarian cancer cells (OVCAR3), CTG cell viability; format: cell-based; settings: Homo sapiens, OVCAR-3, 168 h, 7 days with compound
Method: Ovarian cancer cells (OVCAR3) were cultured using an RPMI 1640 culture medium containing 10% FBS in a cell incubator (37 °C, 5% CO2). On day one, the cells were plated in a 384-well plate at a cell concentration of 800 cells/well and cultured overnight in an incubator. On day two, the cells were treated with compounds. The highest compound concentration was 10 µM and was diluted 3-fold to obtain 9 concentrations, and the final concentration of DMSO was 0.1%. After the cells were cultured in the incubator for another 7 days, the cell viability was tested using a CTG Cell Viability Detection Reagent (MCE); the testing method was consistent with the method provided by the kit. Data were processed using GraphPad Prism 8, and IC50 was calculated. [formula] X: the logarithm of the compound concentration; Y: inhibition%. Table 2. The IC50 (nM) of compounds of the present disclosure against OVCAR3

CDK2/CycE1 = target: T1, CDK2/CycE1 (Homo sapiens, UniProt P24941); test: Activity against cyclin-dependent kinase CDK2/CycE1 (Caliper EZ Reader mobility shift); format: biochemical; settings: 1 h at room temperature; highest concentration 1 µM
T1 construct: purchased Carna 04-165
Method: The test compounds (the highest concentration was 1 µM) were added using Echo 650 and serially diluted 3-fold to obtain a total of 9 concentration points. The assay plate was sealed and centrifuged at 1000 g for 1 min. 2.5× enzymes were prepared in a 1× kinase buffer (50 mM HEPES, pH 7.5, 0.0015% Brij-35, […]), and the 2.5× enzymes (10 µL) were added to the 384-well assay plate. The plate was centrifuged at 1000 g for 30 s and left to stand at room temperature for 10 min. 2.5× substrate and ATP mixtures were prepared in the 1× kinase buffer, and the 2.5× substrate and ATP mixtures (10 µL) were added to start reactions. The assay plate was centrifuged at 1000 g for 30 s, sealed, and incubated at room temperature for 1 h. 25 µL of a stop solution reagent (100 mM HEPES, pH 7.5, 0.015% Brij-35, 0.2% Coating Reagent #3, 50 mM EDTA) was added.
Conversion rate data were read on a CaliperEZ Reader. The conversion rate data were copied from the CaliperEZ Reader. The conversion rates were converted to inhibition rate data. Inhibition% = (max−conversion)/(max−min) × 100, [formula] where "min" is the reading of a control sample well to which no enzyme was added for reaction; "max" is the reading of a control well to which DMSO was added.
IC50 values were obtained by fitting using XLFit excel add-in version 5.4.0.8. Y = Bottom + (Top−Bottom)/(1+((IC50/X))^(∧)HillSlope). [formula] Table 6. […]

[2] = test system: Human breast cancer cells (MDA-MB-231); test: Inhibitory activity against human breast cancer cells (MDA-MB-231), CTG cell viability; format: cell-based; settings: Homo sapiens, 168 h, 7 days with compound
Method: (§1) Human breast cancer cells (MDA-MB-231) were cultured using a DMEM culture medium containing 10% FBS in a cell incubator (37 °C, 5% CO2). On day one, the cells were plated in a 384-well plate at a cell concentration of 600 cells/well and cultured overnight in an incubator. On day two, the cells were treated with compounds. The highest compound concentration was 10 µM and was diluted 3-fold to obtain 9 concentrations, and the final concentration of DMSO was 0.2%. After the cells were cultured in the incubator for another 7 days, the cell viability was tested using a CTG Cell Viability Detection Reagent; the testing method was consistent with the method provided by the kit. Data were processed using XLFit, and IC50 was calculated. [formula] X: the logarithm of the compound concentration; Y: % inhibition. Table 8. The IC50 (nM) of a compound of the present disclosure against MDA-MB-231

[3] = test system: Human prostate cancer cells (22RV1); test: Inhibitory activity against human prostate cancer cells (22RV1), CTG cell viability; format: cell-based; settings: Homo sapiens, 120 h, 5 days with compound
Method: Human prostate cancer cells (22RV1) were cultured using an RPMI 1640 culture medium containing 10% FBS in a cell incubator (37 °C, 5% CO2). On day one, the cells were plated in a 384-well plate at a cell concentration of 500 cells/well and cultured overnight in an incubator. On day two, the cells were treated with compounds. The highest compound concentration was 10 µM and was diluted 3-fold to obtain 9 concentrations, and the final concentration of DMSO was 0.2%. After the cells were cultured in the incubator for another 5 days, the cell viability was tested using a CTG Cell Viability Detection Reagent; the testing method was consistent with the method provided by the kit. Data were processed using XLFit, and IC50 was calculated. [formula] X: the logarithm of the compound concentration; Y: % inhibition. Table 12. The IC50 (nM) of a compound of the present disclosure against 22RV1

[4] = test system: Human breast cancer cells (SUM-149PT); test: Inhibitory activity against human breast cancer cells (SUM-149PT), CTG cell viability; format: cell-based; settings: Homo sapiens, SUM149PT, 120 h, 5 days with compound
Method: as §1, with “cells (SUM-149PT)” for “cells (MDA-MB-231)”, “of 800” for “of 600”, “another 5” for “another 7”, “Table 14.” for “Table 8.”, “against SUM-149PT” for “against MDA-MB-231”

MCF-7/Palbo-R = test: Inhibitory activity against CDK4/6 inhibitor-resistant human breast cancer cells (MCF-7 palbociclib-resistant cell line), cell viability; format: cell-based; settings: Homo sapiens, MCF7, 120 h, 5 days with compound, CellTiter-Glo cell viability
Method: MCF-7/Palbo-R cell source: MCF7 cells (Nanjing Cobioer Biosciences Co., Ltd.) were treated with 1 µM palbociclib for a long time, and drug resistance was induced.
The palbociclib-resistant breast cancer cell line MCF-7/Palbo-R was cultured using a DMEM culture medium containing 10% FBS in a cell incubator (37 °C, 5% CO2). On day one, the cells were plated in a 384-well plate at a cell concentration of 800 cells/well and cultured overnight in an incubator. On day two, the cells were treated with compounds. The highest compound concentration was 10 µM and was diluted 3-fold to obtain 9 concentrations, and the final concentration of DMSO was 0.2%. After the cells were cultured in the incubator for another 5 days, the cell viability was tested using a CellTiter-Glo luminescent cell viability assay kit; the testing method was consistent with the method provided by the kit. Data were processed using XLfit, and IC50 was calculated.
The inhibition rates (IR) of the test compounds were calculated using the following formula: IR (%) = (1 - (RLU compound - RLU blank control) / (RLU vehicle control-RLU blank control)) × 100%. Table 16. The IC50 (nM) of a compound of the present disclosure against MCF-7/Palbo-R

IC50 [1]: 672 nM
IC50 (CDK2/CycE1): 9.8 nM
IC50 [2]: 117 nM
IC50 [3]: 80.3 nM
IC50 [4]: 256 nM
IC50 (MCF-7/Palbo-R): 180 nM
Compound: C[C@H]1COc2c(-c3nc(Nc4ccc(N5CCOCC5=O)cc4F)ncc3Cl)cc(F)c3nc(C(C)(C)O)n1c23 [Example 1, (S)-4-(4-((5-Chloro-4-(8-fluoro-2-(2-hydroxypropan-2-yl)-3-methyl-3,4-dihydro-5-oxa-1,2a-diazaacenaphthylen-6-yl)pyrimidin-2-yl)amino)-3-fluorophenyl)morpholin-3-one]
